# In patent US7314709B2, “Compositions and methods for detecting and quantifying COX-2 activity by lipoamino acid metabolism” (Vanderbilt University, priority 2002, dated 2008):
# Where a chain is given by its changes, count along the chain named.
# Legend:
# Type in all cases: biochemical, murine
# [1] = target: T1, mCOX-2 R513H (Mus musculus, UniProt Q05769, R499H); test: Initial O2 uptake rate with side pocket mutant R513H; conditions: 200 nM enzyme; AA 100 μM, NAGly 200 μM
# T1 construct: made in house; host or cells: Sf-9 insect cells
# T1 sequence (Q05769 18-604 R499H): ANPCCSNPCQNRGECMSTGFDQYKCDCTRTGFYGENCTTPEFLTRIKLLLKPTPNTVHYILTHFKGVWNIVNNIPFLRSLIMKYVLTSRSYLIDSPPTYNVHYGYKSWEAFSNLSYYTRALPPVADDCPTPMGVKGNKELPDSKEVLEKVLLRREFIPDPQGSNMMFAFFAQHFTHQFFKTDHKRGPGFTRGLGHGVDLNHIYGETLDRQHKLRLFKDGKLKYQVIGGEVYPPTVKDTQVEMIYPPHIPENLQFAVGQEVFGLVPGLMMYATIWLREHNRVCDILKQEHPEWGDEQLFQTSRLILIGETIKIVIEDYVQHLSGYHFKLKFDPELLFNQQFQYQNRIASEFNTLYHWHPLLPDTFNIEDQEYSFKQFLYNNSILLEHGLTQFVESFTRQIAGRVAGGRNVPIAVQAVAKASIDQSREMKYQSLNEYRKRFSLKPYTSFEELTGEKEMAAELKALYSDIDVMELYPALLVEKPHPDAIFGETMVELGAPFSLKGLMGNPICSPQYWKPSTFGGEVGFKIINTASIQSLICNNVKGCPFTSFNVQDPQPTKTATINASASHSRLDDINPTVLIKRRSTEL
# Protocol: (§1) Enzymology: COX-1 was purified from ram seminal vesicles as previously described. Site-directed mutagenesis of COX-2 was performed as described previously. Recombinant COX-2 enzymes were expressed in Sf-9 insect cells and purified by ion-exchange chromatography and gel filtration as previously described. Apo-enzymes were reconstituted with hematin prior to activity assays.
# (§2) COX activity was quantified as previously described. Initial reaction velocity data were obtained from the linear portion of the oxygen uptake curves. Oxygraph data were analyzed by nonlinear regression with Enzyme Kinetics 1.5 software (Trinity Software, Campton, N.H.).
# (§3) Previous studies have identified residues in the side pocket of COX-2, especially Arg-513, as critical determinants of 2-AG oxygenation by COX-2 [13]. […] (FIG. 5).
# [2] = target: T2, mCOX-2 V523I (Mus musculus, UniProt Q05769, V509I); test: Initial O2 uptake rate with side pocket mutant V523I; conditions: 200 nM enzyme; AA 100 μM
# T2 construct: made in house; host or cells: Sf-9 insect cells
# T2 sequence (Q05769 18-604 V509I): T1 sequence (Q05769 18-604 R499H) with H482R, V492I
# Protocol: as §1, §2, §3
# [3] = target: T3, mCOX-2 Y385F (Mus musculus, UniProt Q05769, Y371F); test: O2 uptake with mCOX-2 site-directed mutant Y385F
# T3 construct: made in house; host or cells: Sf-9 insect cells
# T3 sequence (Q05769 18-604 Y371F): T1 sequence (Q05769 18-604 R499H) with Y354F, H482R
# Protocol: as §1, §2
# AA binds in the COX active site with the […] near Gly-533 [20,27].
# [4] = target: T4, mCOX-2 R513H/V523I (Mus musculus, UniProt Q05769, R499H/V509I); test: Initial O2 uptake rate with side pocket double mutant R513H/V523I; conditions: 200 nM enzyme; AA 100 μM, NAGly 200 μM
# T4 construct: made in house; host or cells: Sf-9 insect cells
# T4 sequence (Q05769 18-604 R499H/V509I): T1 sequence (Q05769 18-604 R499H) with V492I
# Protocol: as §1, §2, §3
smiles,measurement,setting,value
"CCCCC/C=C\C/C=C\C/C=C\C/C=C\CCCC(=O)O [AA, arachidonic acid]",effect of mutation on oxygenation rate,[1],did not greatly affect
same,effect of mutation on ability to metabolize AA,[2],did not greatly affect
same,substrate oxidation by Y385F,[3],fails to oxidize
same,effect of mutation on oxygenation rate,[4],did not greatly affect
